# From PubChem BioAssay (NCI)
#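 Protocol summary: plate cells (96-well), add compound at 5 concentrations, incubate 48 h, interpolate endpoints linearly. GI50 marks 50% less growth. The concentration for full growth arrest is given as TGI.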
# Columns and labels:
# Assay in all cases: DTP human tumour cell line panel, 48 h
# [1] = system: NCI-H23 lung
# [2] = system: OVCAR-3 ovarian
# [3] = system: SK-MEL-2 melanoma
# [4] = system: KM12 colon
# [5] = system: OVCAR-4 ovarian
# [6] = system: U251 CNS
# [7] = system: DU-145 prostate
# [8] = system: OVCAR-8 ovarian
# [9] = system: HT29 colon
# [10] = system: MDA-MB-231 breast
# [11] = system: M14 melanoma
# [12] = system: CAKI-1 renal
# [13] = system: NCI-H226 lung
# [14] = system: OVCAR-5 ovarian
# [15] = system: NCI/ADR-RES ovarian
# [16] = system: HL-60(TB) leukemia
# [17] = system: TK-10 renal
# [18] = system: ACHN renal
# [19] = system: SR leukemia
# [20] = system: HCT-15 colon
# [21] = system: MCF7 breast
# [22] = system: COLO 205 colon
# [23] = system: K-562 leukemia
# [24] = system: UO-31 renal
# [25] = system: UACC-257 melanoma
# [26] = system: SW-620 colon
# [27] = system: SNB-19 CNS
# [28] = system: HS 578T breast
# [29] = system: SK-OV-3 ovarian
# [30] = system: HOP-62 NSCLC
# [31] = system: SK-MEL-5 melanoma
# [32] = system: IGROV1 ovarian
# [33] = system: HCC-2998 colon
# [34] = system: SNB-75 CNS
# [35] = system: RPMI-8226 leukemia
# [36] = system: SN12C renal
# [37] = system: LOX IMVI melanoma
# [38] = system: MDA-MB-435
# [39] = system: NCI-H522 lung
# [40] = system: A498 renal
# [41] = system: SF-295 CNS
# [42] = system: PC-3 prostate
# [43] = system: BT-549 breast
# [44] = system: A549 NSCLC
# [45] = system: EKVX NSCLC
# [46] = system: CCRF-CEM leukemia
# [47] = system: SF-268 CNS
# [48] = system: SF-539 CNS
# [49] = system: RXF 393 renal
# [50] = system: SK-MEL-28 melanoma
# [51] = system: T-47D breast
# [52] = system: MOLT-4 leukemia
# [53] = system: UACC-62 melanoma
# [54] = system: HCT-116 colon
# [55] = system: 786-0 renal
# [56] = system: HOP-92 NSCLC
# [57] = system: NCI-H460 lung
# [58] = system: MALME-3M melanoma
smiles,measurement,setting,value
COc1cc2c3c(n(CCCNCCCNCCCn4c5c(c6cc(OC)c(OC)cc6c4=O)C(=O)c4ccccc4-5)c(=O)c2cc1OC)-c1ccccc1C3=O,GI50,[1],> 100 µM
same,TGI,[1],> 100 µM
same,GI50,[2],12.6 µM
same,TGI,[2],31.5 µM
same,GI50,[3],40.3 µM
same,TGI,[3],> 100 µM
same,GI50,[4],4.77 µM
same,TGI,[4],> 84.9 µM
same,GI50,[5],> 100 µM
same,TGI,[5],> 100 µM
same,GI50,[6],2.49 µM
same,TGI,[6],17.4 µM
same,GI50,[7],> 44.3 µM
same,TGI,[7],> 100 µM
same,GI50,[8],2.87 µM
same,TGI,[8],> 100 µM
same,GI50,[9],2.15 µM
same,TGI,[9],> 100 µM
same,GI50,[10],2 µM
same,TGI,[10],20.1 µM
same,GI50,[11],22.6 µM
same,TGI,[11],> 58.9 µM
same,GI50,[12],> 100 µM
same,TGI,[12],> 100 µM
same,GI50,[13],7.89 µM
same,TGI,[13],> 52.2 µM
same,GI50,[14],20 µM
same,TGI,[14],> 100 µM
same,GI50,[15],> 100 µM
same,TGI,[15],> 100 µM
same,GI50,[16],1.11 µM
same,TGI,[16],12.6 µM
same,GI50,[17],40.2 µM
same,TGI,[17],> 100 µM
same,GI50,[18],24.2 µM
same,TGI,[18],> 100 µM
same,GI50,[19],0.225 µM
same,TGI,[19],22.2 µM
same,GI50,[20],> 84.5 µM
same,TGI,[20],> 100 µM
same,GI50,[21],1.51 µM
same,TGI,[21],> 53.2 µM
same,GI50,[22],7.24 µM
same,TGI,[22],> 61.9 µM
same,GI50,[23],3.39 µM
same,TGI,[23],45.4 µM
same,GI50,[24],> 100 µM
same,TGI,[24],> 100 µM
same,GI50,[25],> 100 µM
same,TGI,[25],> 100 µM
same,GI50,[26],7.51 µM
same,TGI,[26],> 100 µM
same,GI50,[27],6.91 µM
same,TGI,[27],> 47.8 µM
same,GI50,[28],> 50.7 µM
same,TGI,[28],> 100 µM
same,GI50,[29],> 100 µM
same,TGI,[29],> 100 µM
same,GI50,[30],6.59 µM
same,TGI,[30],47 µM
same,GI50,[31],68.2 µM
same,TGI,[31],> 100 µM
same,GI50,[32],1.33 µM
same,TGI,[32],> 55.6 µM
same,GI50,[33],2.13 µM
same,TGI,[33],30.3 µM
same,GI50,[34],25 µM
same,TGI,[34],62.1 µM
same,GI50,[35],0.487 µM
same,TGI,[35],6.62 µM
same,GI50,[36],0.706 µM
same,TGI,[36],> 51.6 µM
same,GI50,[37],1.31 µM
same,TGI,[37],13.9 µM
same,GI50,[38],12.9 µM
same,TGI,[38],> 59.1 µM
same,GI50,[39],1.54 µM
same,TGI,[39],38.7 µM
same,GI50,[40],25.2 µM
same,TGI,[40],59.8 µM
same,GI50,[41],5.03 µM
same,TGI,[41],18.4 µM
same,GI50,[42],4.04 µM
same,TGI,[42],> 60 µM
same,GI50,[43],58.2 µM
same,TGI,[43],> 100 µM
same,GI50,[44],12.7 µM
same,TGI,[44],> 100 µM
same,GI50,[45],> 100 µM
same,TGI,[45],> 100 µM
same,GI50,[46],0.491 µM
same,TGI,[46],12.7 µM
same,GI50,[47],6.61 µM
same,TGI,[47],> 100 µM
same,GI50,[48],9.17 µM
same,TGI,[48],45.4 µM
same,GI50,[49],> 47.8 µM
same,TGI,[49],> 92.2 µM
same,GI50,[50],> 52.5 µM
same,TGI,[50],> 82.4 µM
same,GI50,[51],> 24.8 µM
same,TGI,[51],> 100 µM
same,GI50,[52],2.65 µM
same,TGI,[52],9.8 µM
same,GI50,[53],8.75 µM
same,TGI,[53],38.9 µM
same,GI50,[54],1.27 µM
same,TGI,[54],17.6 µM
same,TGI,[55],> 46.4 µM
same,GI50,[56],1.74 µM
same,TGI,[56],8.62 µM
same,GI50,[57],6.23 µM
same,TGI,[57],> 100 µM
same,GI50,[58],25.7 µM
same,TGI,[58],> 91.7 µM
CCOC(=O)/C=C\[C@H]1OC(C)(C)O[C@H]1[C@H](O)[C@H]1COC(C)(C)O1,TGI,[1],50.1 µM
same,TGI,[2],32.2 µM
same,TGI,[3],52.4 µM
same,TGI,[4],> 100 µM
same,TGI,[5],46.5 µM
same,TGI,[6],32.6 µM
same,TGI,[7],> 100 µM
same,TGI,[8],> 100 µM
same,TGI,[9],46.1 µM
same,TGI,[10],33.9 µM
same,TGI,[11],33 µM
same,TGI,[12],7.88 µM
same,TGI,[13],> 100 µM
same,TGI,[14],32.6 µM
same,TGI,[15],> 100 µM
same,TGI,[16],62.4 µM
same,TGI,[17],30.8 µM
same,TGI,[18],32.6 µM
same,TGI,[19],37.2 µM
same,TGI,[20],33.1 µM
same,TGI,[21],40.7 µM
same,TGI,[22],32.3 µM
same,TGI,[23],44.7 µM
same,TGI,[24],34.4 µM
same,TGI,[25],55.5 µM
same,TGI,[26],36.8 µM
same,TGI,[27],> 100 µM
same,TGI,[28],93.2 µM
same,TGI,[29],> 100 µM
same,TGI,[30],> 100 µM
same,TGI,[31],33.5 µM
same,TGI,[32],37.7 µM
same,TGI,[33],28.6 µM
same,TGI,[34],13.3 µM
same,TGI,[35],42.3 µM
same,TGI,[36],33.5 µM
same,TGI,[37],39.9 µM
same,TGI,[38],35 µM
same,TGI,[39],29.7 µM
same,TGI,[40],37.6 µM
same,TGI,[41],> 100 µM
same,TGI,[42],37.6 µM
same,TGI,[43],42.2 µM
same,TGI,[44],> 100 µM
same,TGI,[45],50.1 µM
same,TGI,[46],39 µM
same,TGI,[47],72.6 µM
same,TGI,[48],32.1 µM
same,TGI,[49],35 µM
same,TGI,[50],35.6 µM
same,TGI,[51],46.7 µM
same,TGI,[52],40.5 µM
same,TGI,[53],60.7 µM
same,TGI,[54],39 µM
same,TGI,[55],39.2 µM
same,TGI,[56],31.3 µM
same,TGI,[57],> 100 µM
same,TGI,[58],41.7 µM
